Measured values: patent publication US8546378B2, “5HT2C receptor modulator compositions and methods of use” (Arena Pharmaceuticals, Inc., priority 2004, dated 2013)

Columns and labels:
human 5-HT2C receptor = target: T1, human 5-HT2C receptor (Homo sapiens, UniProt P28335); assay: Intracellular IP3 Accumulation Assay; format: cell-based; conditions: HEK293 cells transfected with human 5-HT2C receptor; averages of at least two trials; read-out: 5-HT2C (EC50) IP Accumulation Assay
T1 construct: expressed in transfected cells; host or cells: HEK293
T1 sequence (P28335 33-458): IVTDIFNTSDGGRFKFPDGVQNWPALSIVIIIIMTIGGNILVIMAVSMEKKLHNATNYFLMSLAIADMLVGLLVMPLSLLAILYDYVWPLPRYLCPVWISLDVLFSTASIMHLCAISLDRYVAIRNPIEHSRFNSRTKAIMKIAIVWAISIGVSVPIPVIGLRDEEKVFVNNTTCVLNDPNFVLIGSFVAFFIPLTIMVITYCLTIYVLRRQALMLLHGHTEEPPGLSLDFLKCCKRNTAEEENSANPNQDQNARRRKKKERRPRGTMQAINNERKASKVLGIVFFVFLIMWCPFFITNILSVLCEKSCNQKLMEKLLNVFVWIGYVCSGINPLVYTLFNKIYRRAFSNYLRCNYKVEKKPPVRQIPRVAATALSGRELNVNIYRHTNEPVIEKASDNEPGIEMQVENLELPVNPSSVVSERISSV
Method: HEK293 cells were transfected in 15 cm sterile dishes with or without (control) 16 μg of human 5-HT2C receptor cDNA using 25 μl of lipofectamine. Cells were then incubated for 3-4 hours at 37° C./5% CO2 and then transfection media was removed and replaced with 100 μl of DMEM. Cells were then plated onto 100 cm sterile dishes. The next day cells were plated into 96 well PDL microtiter plates at a density of 55K/0.2 ml. Six hours latter, media was exchanged with [^3H]inositol (0.25 μCi/well) in inositol free DMEM and plates were incubated at 37° C./5% CO2 overnight. The next day, wells were aspirated and 200 μl of DMEM containing test compound, 10 μM pargyline, and 10 mM LiCl was added to appropriate wells. Plates were then incubated at 37° C./5% CO2 for three hours followed aspiration and by addition of fresh ice cold stop solution (1M KOH, 19 mM Na-borate, 3.8 mM EDTA) to each well. Plates were kept on ice for 5-10 min and the wells were neutralized by addition of 200 μl of fresh ice cold neutralization solution (7.5% HCl). Plates were then frozen until further processing is desired. The lysate was then transferred into 1.5 ml Eppendorf tubes and 1 ml of chloroform/methanol (1:2) was added/tube. The solution was vortexed for 15 seconds and the upper phase was applied to a Biorad AG1-X8™ anion exchange resin (100-200 mesh). First, the resin was washed with water at 1:1.25 W/V and 0.9 ml of upper phase was loaded onto the column. The column was then washed with 10 ml of 5 mM myo-inositol and 10 ml of 5 mM Na-borate/60 mM Na-formate. The inositol tris phosphates were eluted into scintillation vials containing 10 ml of scintillation cocktail with 2 ml of 0.1 M formic acid/1 M ammonium formate. The columns were regenerated by washing with 10 ml of 0.1 M formic acid/3M ammonium formate and rinsed twice with dd H2O and stored at 4° C. in water.

Sprague-Dawley (SD) rats = assay: Food intake in rats: selective 5HT-2C agonist alone, phentermine alone, or combination (Example 59); format: in vivo, rat; conditions: perorally, 2 h food intake, two-way ANOVA, Bonferroni p<0.01; for effect on food intake in female rats: female SD rats, FIG. 3A; for effect on food intake in male rats: male SD rats, FIG. 3B
Method: Female (weight 225-250 g) and male (weight 250-275 g) Sprague-Dawley (SD) rats were purchased from Harlan (San Diego, Calif.) and housed 4 per cage in a temperature controlled environment under a 17 h/7 h light/dark cycle (lights out at 10:00 am). Water and Chow was available (LabDiet 8604) ad libitum for two weeks. The animals were handled for 2 occasions during this time. On the morning of the study, the animals were individually housed with no food or bedding and dosed perorally with 1 ml/kg of compound or vehicle 30 minutes prior to lights out. At lights out, the animals were given a pre-weighed amount of chow and placed near the food bowl. Two hours later the remaining chow was weighed and the study concluded.

SMILES	EC50 (human 5-HT2C receptor) [nM]	effect on food intake in female rats (Sprague-Dawley (SD) rats)	effect on food intake in male rats (Sprague-Dawley (SD) rats)
COc1cc2c(cc1Br)C(C)CNCC2 (racemic) [Example 1, (R,S) 8-Bromo-7-methoxy-1-methyl-2,3,4,5-tetrahydro-1H-3-benzazepine]	4.2	–	–
COc1cc2c(cc1Cl)C(C)CNCC2 (racemic) [Example 2, (R,S) 8-Chloro-7-methoxy-1-methyl-2,3,4,5-tetrahydro-1H-3-benzazepine]	4.5	–	–
COc1cc2c(cc1I)C(C)CNCC2 (racemic) [Example 3, (R,S) 8-Iodo-7-methoxy-1-methyl-2,3,4,5-taetrhydro-1H-3-benzazepine]	1.4	–	–
CC1CNCCc2cc(O)c(Br)cc21 (racemic) [Example 4, (R,S) 8-Bromo-7-hydroxy-1-methyl-2,3,4,5-tetrahydro-1H-3-benzazepine]	2.1	–	–
C=CCOc1cc2c(cc1Br)C(C)CNCC2 (racemic) [Example 5, (R,S) 7-Allyloxy-8-bromo-1-methyl-2,3,4,5-tetrahydro-1H-3-benzazepine]	12.1	–	–
C=CCOc1cc2c(cc1I)C(C)CNCC2 (racemic) [Example 12, (R,S) 7-Allyloxy-8-iodo-1-methyl-2,3,4,5-tetrahydro-1H-3-benzazepine]	6.3	–	–
CCC1CNCCc2cc(OC)c(Br)cc21 (racemic) [Example 19, (R,S) 8-Bromo-1-ethyl-7-methoxy-2,3,4,5-tetrahydro-1H-3-benzazepine]	18	–	–
CC1CNCCc2ccc(Br)cc21 (racemic) [Example 32, (R,S) 8-Bromo-1-methyl-2,3,4,5-tetrahydro-1H-3-benzazepine]	2.1	–	–
C[C@H]1CNCCc2ccc(Cl)cc21 [Compound B, (R)-8-chloro-1-methyl-2,3,4,5-tetrahydro-1H-3-benzazepine]	–	No other significant differences between groups	No other significant differences between groups
CC(C)(N)Cc1ccccc1 [phentermine, 1,1-Dimethyl-2-phenyl-ethylamine, reference compound]	–	No other significant differences between groups	No other significant differences between groups
